Test results published in patent publication US11180474B2 (BRISTOL-MYERS SQUIBB COMPANY, priority 2016, dated 2021).

biological target: T1, human TLR9 (Homo sapiens, UniProt Q9NR96); assay: TLR9 inhibition reporter assay (HEK-Blue cells, SEAP reporter, ODN2006 stimulation); assay type: cell-based; conditions: HEK-Blue cells overexpressing human TLR9, ODN2006 5 nM
T1 construct: host or cells: HEK-Blue cells
T1 sequence (Q9NR96 26-1032): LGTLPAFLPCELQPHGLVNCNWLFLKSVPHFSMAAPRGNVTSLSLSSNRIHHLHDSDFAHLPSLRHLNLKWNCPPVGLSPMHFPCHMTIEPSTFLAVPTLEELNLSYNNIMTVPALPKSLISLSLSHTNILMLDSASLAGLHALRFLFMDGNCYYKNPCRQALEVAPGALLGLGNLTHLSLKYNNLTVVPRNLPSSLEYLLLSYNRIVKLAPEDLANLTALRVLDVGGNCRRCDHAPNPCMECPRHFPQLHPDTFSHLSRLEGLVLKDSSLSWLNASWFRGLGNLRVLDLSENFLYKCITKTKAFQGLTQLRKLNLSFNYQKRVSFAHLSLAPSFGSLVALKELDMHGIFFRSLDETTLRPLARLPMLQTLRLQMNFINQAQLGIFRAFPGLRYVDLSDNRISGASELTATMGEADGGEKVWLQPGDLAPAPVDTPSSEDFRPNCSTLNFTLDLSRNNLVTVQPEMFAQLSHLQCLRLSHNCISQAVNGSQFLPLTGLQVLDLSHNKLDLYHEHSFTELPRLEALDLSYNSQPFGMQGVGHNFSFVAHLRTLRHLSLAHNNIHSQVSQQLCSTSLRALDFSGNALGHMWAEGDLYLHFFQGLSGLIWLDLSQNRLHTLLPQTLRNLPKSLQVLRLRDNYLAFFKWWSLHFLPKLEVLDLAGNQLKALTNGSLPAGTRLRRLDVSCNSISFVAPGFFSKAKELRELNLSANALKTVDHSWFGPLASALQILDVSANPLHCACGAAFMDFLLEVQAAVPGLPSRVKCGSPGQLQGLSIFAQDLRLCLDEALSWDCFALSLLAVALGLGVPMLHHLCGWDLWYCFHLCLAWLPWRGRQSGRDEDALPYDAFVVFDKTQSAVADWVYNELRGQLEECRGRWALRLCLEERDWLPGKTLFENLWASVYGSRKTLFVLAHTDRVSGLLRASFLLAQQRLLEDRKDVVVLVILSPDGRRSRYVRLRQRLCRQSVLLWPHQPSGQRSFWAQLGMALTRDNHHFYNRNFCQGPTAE
Method in brief: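 Compound treatment: 30 min, RT, 0.05 nM–50 μM final. Agonist: TLR7 gardiquimod 7.5 μM; TLR8 R848 15.9 μM; TLR9 ODN2006 5 nM. Incubation 22 h, 37 °C, 5% CO2. Readout SEAP, HEK-Blue Detection.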

Row | SMILES | IC50 [µM]
1 | COc1ccc(-c2[nH]c3ccc(C4CCN(C(=O)CNCCC(C)O)CC4)cc3c2C)cc1OC (stereo not shown) [Example 406, 1-(4-(2-(3,4-dimethoxyphenyl)-3-methyl-1H-indol-5-yl)piperidin-1-yl)-2-((3-hydroxybutyl)amino)ethan-1-one] | 3.89
2 | COc1ccc(-c2[nH]c3ccc(C4CCN(C(=O)CN5CCC(N(C)C)CC5)CC4)cc3c2C)cc1OC [Example 407, 1-(4-(2-(3,4-dimethoxyphenyl)-3-methyl-1H-indol-5-yl)piperidin-1-yl)-2-(4-(dimethylamino)piperidin-1-yl)ethan-1-one] | 11.5
3 | COc1ccc(-c2[nH]c3ccc(C4CCN(C(=O)CN(C)CCO)CC4)cc3c2C)cc1OC [Example 408, 1-(4-(2-(3,4-dimethoxyphenyl)-3-methyl-1H-indol-5-yl)piperidin-1-yl)-2-((2-hydroxyethyl)(methyl)amino)ethan-1-one] | 2
4 | COc1ccc(-c2[nH]c3ccc(C4CCN(C(=O)CN5CCN(C)CC5)CC4)cc3c2C)cc1OC [Example 409, 1-(4-(2-(3,4-dimethoxyphenyl)-3-methyl-1H-indol-5-yl)piperidin-1-yl)-2-(4-methylpiperazin-1-yl)ethan-1-one] | 2.35
5 | COc1ccc(-c2[nH]c3ccc(C4CCN(C(=O)CN5CCCN(C)CC5)CC4)cc3c2C)cc1OC [Example 410, 1-(4-(2-(3,4-dimethoxyphenyl)-3-methyl-1H-indol-5-yl)piperidin-1-yl)-2-(4-methyl-1,4-diazepan-1-yl)ethan-1-one] | 5.25
6 | C#CCCCCC(=O)NCCN1CCC(c2ccc3[nH]c(-c4ccc(OC)c(OC)c4)c(C(C)C)c3c2)CC1 [Example 411, N-(2-(4-(2-(3,4-dimethoxyphenyl)-3-isopropyl-1H-indol-5-yl)piperidin-1-yl)ethyl)hept-6-ynamide] | 3.89
7 | COc1ccc(-c2[nH]c3ccc(C4CCN(C5CCN(C(C)C)CC5)CC4)cc3c2CC(F)(F)F)cc1OC [Example 412, 2-(3,4-dimethoxyphenyl)-5-(1′-isopropyl-[1,4′-bipiperidin]-4-yl)-3-(2,2,2-trifluoroethyl)-1H-indole] | 0.247
8 | CNCCN1CCC(c2ccc3[nH]c(-c4ccc(OC)c(OC)c4)c(CC(F)(F)F)c3c2)CC1 [Example 413, 2-(4-(2-(3,4-dimethoxyphenyl)-3-(2,2,2-trifluoroethyl)-1H-indol-5-yl)piperidin-1-yl)-N-methylethanamine] | 0.626
9 | CNCC(=O)N1CCC(c2ccc3[nH]c(-c4ccc(OC)c(OC)c4)c(CC(F)(F)F)c3c2)CC1 [Example 414, 1-(4-(2-(3,4-dimethoxyphenyl)-3-(2,2,2-trifluoroethyl)-1H-indol-5-yl)piperidin-1-yl)-2-(methylamino)ethanone] | 1.17
10 | CCN(CC)C(=O)C1CCCN(CC(=O)N2CCC(c3ccc4[nH]c(-c5ccc(OC)c(OC)c5)c(CC(F)(F)F)c4c3)CC2)C1 (stereo not shown) [Example 418, 1-(2-(4-(2-(3,4-dimethoxyphenyl)-3-(2,2,2-trifluoroethyl)-1H-indol-5-yl)piperidin-1-yl)-2-oxoethyl)-N,N-diethylpiperidine-3-carboxamide] | 1.45
11 | COc1ccc(-c2[nH]c3ccc(C4CCN(C(=O)CN5CCCC(C(=O)N(C)C)C5)CC4)cc3c2CC(F)(F)F)cc1OC (stereo not shown) [Example 419, 1-(2-(4-(2-(3,4-dimethoxyphenyl)-3-(2,2,2-trifluoroethyl)-1H-indol-5-yl)piperidin-1-yl)-2-oxoethyl)-N,N-dimethylpiperidine-3-carboxamide] | 2.95
12 | CCN(CC)C(=O)C1CCCN(CC(=O)N2CCC(c3ccc4[nH]c(-c5ccc(OC)c(OC)c5)c(CC(F)(F)F)c4c3)CC2)C1 (stereo not shown) [Example 420, 1-(2-(4-(2-(3,4-dimethoxyphenyl)-3-(2,2,2-trifluoroethyl)-1H-indol-5-yl)piperidin-1-yl)-2-oxoethyl)-N,N-diethylpiperidine-3-carboxamide] | 0.279
13 | CCN(CC)C(=O)C1CCCN(CC(=O)N2CCC(c3ccc4[nH]c(-c5ccc(OC)c(OC)c5)c(CC(F)(F)F)c4c3)CC2)C1 (stereo not shown) [Example 421, 1-(2-(4-(2-(3,4-dimethoxyphenyl)-3-(2,2,2-trifluoroethyl)-1H-indol-5-yl)piperidin-1-yl)-2-oxoethyl)-N,N-diethylpiperidine-3-carboxamide] | 2.28
